How the values were obtained:
[1] = target: T1, AtDPE1 (disproportionating enzyme 1) (Arabidopsis thaliana, UniProt Q9LV91); assay: X-ray crystallography, crystal soak; assay type: biochemical; conditions: covalent; 10 mM soak, pH 8.0; only the maltosyl unit (subsites -2, -1) linked to Asp-373 seen, from slow cleavage; 2.30 Å
T1 construct: gene DPE1; residues 46-576, transit peptide removed, N-terminal His6 tag kept (pET151/D-TOPO), homodimer
T1 sequence (Q9LV91 46-576): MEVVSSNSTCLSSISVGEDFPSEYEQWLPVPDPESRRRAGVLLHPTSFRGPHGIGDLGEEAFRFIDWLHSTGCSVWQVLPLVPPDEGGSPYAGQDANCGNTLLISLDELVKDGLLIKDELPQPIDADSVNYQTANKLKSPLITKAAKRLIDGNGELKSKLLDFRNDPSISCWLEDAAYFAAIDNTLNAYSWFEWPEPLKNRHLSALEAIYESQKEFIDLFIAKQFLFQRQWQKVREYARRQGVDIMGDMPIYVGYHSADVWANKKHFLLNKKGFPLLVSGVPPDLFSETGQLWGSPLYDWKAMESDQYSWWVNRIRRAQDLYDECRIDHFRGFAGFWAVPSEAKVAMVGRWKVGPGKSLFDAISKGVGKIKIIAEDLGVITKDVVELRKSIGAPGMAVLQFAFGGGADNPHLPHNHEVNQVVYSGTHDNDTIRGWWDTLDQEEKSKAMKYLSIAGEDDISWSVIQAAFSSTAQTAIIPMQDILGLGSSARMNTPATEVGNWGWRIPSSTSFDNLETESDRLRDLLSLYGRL

[2] = target: T1, AtDPE1 (disproportionating enzyme 1); assay: turnover in crystal (transglycosylation during soak), X-ray crystallography; assay type: biochemical; conditions: 10 mM soak, pH 8.0; intact maltotriose not seen, longer malto-oligosaccharide bound

| Compound | X-ray crystallography, crystal soak [1] | turnover in crystal (transglycosylation during soak), X-ray crystallography [2] |
| --- | --- | --- |
| OC[C@H]1O[C@@H]2O[C@H]3[C@H](O)[C@@H](O)[C@@H](O[C@H]4[C@H](O)[C@@H](O)[C@@H](O[C@H]5[C@H](O)[C@@H](O)[C@@H](O[C@H]6[C@H](O)[C@@H](O)[C@@H](O[C@H]7[C@H](O)[C@@H](O)[C@@H](O[C@H]8[C@H](O)[C@@H](O)[C@@H](O[C@H]1[C@H](O)[C@H]2O)O[C@@H]8CO)O[C@@H]7CO)O[C@@H]6CO)O[C@@H]5CO)O[C@@H]4CO)O[C@@H]3CO [BCD, β-cyclodextrin] | The covalently bound donor most likely resulted from a slow hydrolysis of β-cyclodextrin | – |
| OC[C@H]1O[C@H](O[C@H]2[C@H](O)[C@@H](O)[C@@H](O[C@H]3[C@H](O)[C@@H](O)C(O)O[C@@H]3CO)O[C@@H]2CO)[C@H](O)[C@@H](O)[C@@H]1O (some centres unmarked) [MA3, maltotriose] | – | malto-oligosaccharide in each active site, indicative of transglycosylation reactions occurring during crystal soaking |

From paper PMC4705983, “Structural Dissection of the Maltodextrin Disproportionation Cycle of the Arabidopsis Plastidial Disproportionating Enzyme 1 (DPE1)” (The Journal of Biological Chemistry, 2015)
